Experiments:
[1] = system: osteolytic lesion in the right iliac bone; experiment: 18F-FDG PET/CT of a multiple myeloma patient; format: in vivo, human; conditions: same osteolytic lesion in right iliac bone of MM patient
[2] = reported for other copper radiopharmaceuticals; cited from earlier work
CD-1 mice = experiment: Non-GLP tolerability and toxicity study of Cu-LLP2A V2, single IV bolus; format: in vivo
Experimental: To evaluate the tolerability and toxicity of Cu-CB-TE1A1P-PEG4-LLP2A V2 (Cu-LLP2A V2) tracer/imaging agent when administered once on Day 1 by intravenous (IV) bolus administration to male and female CD-1 mice, the following experiments were conducted. On Day 2 after administering the tracer/imaging agent, the first 10 animals/sex/group (Main Study) were sacrificed and necropsied. The remaining 5 animals/sex/group (Recovery) were weighed and observed for the remainder of the study and necropsied on Day 15.
Each treatment group (Groups 1-2) was comprised of […] CD-1 mice. Mice were administered either vehicle or 0.0604 mg/mouse Cu-LLP2A V2 (Groups 1 and 2, respectively) once on Day 1 via IV bolus injection at a dose volume of 0.125 mL/mouse. Physical examinations were recorded at the time of randomization. Clinical observations were recorded daily. Body weight measurements were taken for randomization and daily. Blood samples for the evaluation of hematology and clinical chemistry were collected on Day 2 (Main Study) and Day 15 (Recovery). Following blood sample collections, a necropsy was conducted. Protocol-specified tissues were collected and evaluated grossly, select organs were weighed, and tissues were fixed for microscopic evaluation. Tissues were subsequently processed and evaluated microscopically.

With `OC[C@H]1OC(O)[C@H]([18F])[C@@H](O)[C@@H]1O` (stereo partly drawn) [^18F-FDG, [^18F]fluorodeoxyglucose] the “SUL-peak (per PERCIST) in lesion” value [1] was 2.1 and the SUV-max in lesion [1] was 2.9.

In the case of `CN=C([S-])N/N=C(C)/C(C)=N/NC([S-])=NC.[64Cu+2]` [^64Cu-ATSM], the Effective dose [2] is given as 0.036 mSv/MBq.

In the case of “Cu-CB-TE1A1P-PEG4-LLP2A V2 [Cu-LLP2A V2]”, the Survival (CD-1 mice; 0.0604 mg/mouse IV, until scheduled sacrifice (Day 2 or Day 15)) is reported as “All animals survived”, the Tolerability (CD-1 mice; single IV injection of 0.0604 mg/mouse, male and female CD-1 mice) is reported as “well tolerated” and the “NOEL (No Observable Effect Level)” value (CD-1 mice; single IV injection, male and female CD-1 mice) is reported as 0.0604 mg/mouse.
